# pIC50: −log10 of the molar value.
# Columns and labels:
# Format in all cases: biochemical
# FIH = target: T1, FIH (Homo sapiens, UniProt Q9NWT6); assay: kinetic analyses of N-oxaloyl amino acid inhibitors of FIH; details: for pIC50: inhibition of FIH, kinetic analyses
# T1 construct: His6 (N, cleaved yes); made in house; host or cells: Escherichia coli BL21(DE3), pET28a(+)
# PHD isozymes = assay: inhibition of PHD isozymes by N-oxaloylalanine enantiomers; details: S- versus R-enantiomer
# Description: (§1) Such inhibitors may or may not chelate to an active site metal.
# [1] = system: procollagen prolyl-hydroxylase; assay: inhibition of procollagen prolyl-hydroxylase by N-oxaloylalanine enantiomers; details: S- versus R-enantiomer
# Description: as §1
# T1 sequence (Q9NWT6 whole entry): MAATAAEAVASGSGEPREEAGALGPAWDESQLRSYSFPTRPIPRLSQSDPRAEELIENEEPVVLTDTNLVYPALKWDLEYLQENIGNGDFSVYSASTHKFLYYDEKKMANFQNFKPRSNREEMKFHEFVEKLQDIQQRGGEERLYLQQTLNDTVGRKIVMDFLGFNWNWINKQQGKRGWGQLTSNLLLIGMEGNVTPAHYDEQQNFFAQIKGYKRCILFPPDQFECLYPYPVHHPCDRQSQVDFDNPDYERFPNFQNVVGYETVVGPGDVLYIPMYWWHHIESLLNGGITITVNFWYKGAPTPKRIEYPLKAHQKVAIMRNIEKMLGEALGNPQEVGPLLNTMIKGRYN
pIC50 (FIH),relative potency of enantiomers (reversed selectivity) [1],"inhibition of FIH, in words (FIH; used as 2OG analogue in co-crystallisation)",SMILES,relative potency of enantiomers (reversed selectivity) (PHD isozymes)
3.40,,,"C[C@H](NC(=O)C(=O)O)C(=O)O (single isomer, unassigned) [R-enantiomer, N-oxaloylalanine]",
2.60,more potent,,"C[C@H](NC(=O)C(=O)O)C(=O)O [S-enantiomer, N-oxaloylalanine]",more potent
,,FIH inhibitor,"O=C(O)CNC(=O)C(=O)O [NOG, N-oxaloylglycine, reference compound]",
